Results as given in paper PMC11758220, “Identification of a Privileged Scaffold for Inhibition of Sterol Transport Proteins through the Synthesis and Ring Distortion of Diverse, Pseudo-Natural Products” (ACS Central Science, 2025).

Experiments:
STARD4 = biological target: T1, STARD4 (Homo sapiens, UniProt Q96DR4, C75S); assay: Differential scanning fluorimetry (DSF), STARD4; assay type: binding; settings: for STARD4 (DSF) ΔTm / ΔTm at 10 µM: single dose, Dose = 10 µM; for Kd: apparent Kd, mean of three experiments run in technical duplicates, read-out: STARD4 Kd,app (DSF); for STARD4 (DSF) ΔTmmax: maximal thermal shift
T1 construct: STARD4(2-205; C75S); made in house; host or cells: E. coli BL21(DE3)
T1 sequence (Q96DR4 2-205 C75S): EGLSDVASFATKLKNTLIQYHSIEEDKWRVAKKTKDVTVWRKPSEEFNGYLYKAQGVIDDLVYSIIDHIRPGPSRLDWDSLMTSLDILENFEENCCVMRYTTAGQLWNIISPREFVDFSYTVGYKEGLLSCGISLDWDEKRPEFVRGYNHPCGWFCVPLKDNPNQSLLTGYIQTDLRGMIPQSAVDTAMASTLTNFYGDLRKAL
Text: (§1) Protein expression constructs
(§2) Human ASTER domains of Aster-A(359-547), -B(364-552) and -C(318-504) were subcloned into a pGEX-6p-2rbs vector, thus introducing the cloning artifact ‘GPLGS’.3 The pGEX-6P-1-GST-OSBP(377- […]
(§3) a gift from James H. Hurley (University of California).4 The pHIS_2His6_Thrombin_STARD4(2-205;C75S) plasmid was a gift from Young Jun Im (Chonnam National University).5 STARD5A was a gift from Nicola Burgess-Brown (Addgene plasmid #42392; http://n2t.net/addgene:42392; […]
(§4) Protein expression and purification […]
(§5) vectors including an N-terminal PreScission-cleavable glutathione S-transferase (GST)-tag were expressed in Escherichia coli (E. coli) OverExpress C41 in Terrific Broth (TB) medium for 16 h at 18 °C after the induction with 0.1 mM isopropyl β-D-1-thiogalactopyranoside (IPTG). Cells were harvested at 3500 × g for 15 minutes and lysed by sonication in buffer containing 50 mM HEPES pH 7.5, 300 mM NaCl, 10 %v/v glycerol, 5 mM dithiothreitol (DTT), 0.1 %v/v Triton X-100 and protease inhibitor mix HP plus (Serva). The lysate was purified by affinity chromatography on a GSTrap FF column (Cytiva) using an ÄKTA Start (Cytiva) in buffer containing 50 mM HEPES pH 7.5, 300 mM NaCl, 10 %v/v glycerol, 5 mM DTT and 0.01 %v/v Triton X-100. The GST-tag was cleaved overnight on the column at 4 °C. The Aster sterol binding domains were further purified by size-exclusion chromatography (SEC) on a HiLoad 16/600 Superdex 75 pg (Cytiva) in buffer containing 20 mM HEPES pH 7.5, 300 mM NaCl, 10 %v/v […]
(§6) STARD5(6-213) harboring an N-terminal His6-Tag were expressed in E. coli BL21(DE3) in Luria-Bertani Broth (LB) medium for approximately 16 h at 18 °C after induction with 0.15 mM IPTG. Cells were harvested at 3500 × g for 15 minutes and lysed by sonication in buffer containing 50 mM HEPES pH 7.5, 150 mM NaCl, 5 %v/v glycerol, 5 mM DTT, 0.1 %v/v Triton X -100 and ethylenediaminetetraacetic acid (EDTA)-free protease inhibitor cocktail (Sigma-Aldrich). The cleared lysate was purified by affinity chromatography on a Ni-NTA Superflow Cartridge (Qiagen) using an ÄKTA Start (Cytiva) in buffer containing 50 mM HEPES pH 7.5, 150 mM NaCl, 5 %v/v glycerol, 5 mM DTT. START domains were eluted by using elution buffer containing 50 mM HEPES pH 7.5, 150 mM NaCl, 5 %v/v glycerol, 5 mM DTT and 500 mM imidazole. Proteins were further purified by SEC on a HiLoad 16/600 Superdex 75 pg (Cytiva) in buffer containing 20 mM HEPES pH 7.5, 150 mM NaCl, 5 %v/v glycerol and 2 mM DTT.
(§7) The ORP domain of human OSBP(377-807) in the pGEX-6p-1 vector with an N-terminal PreScission-cleavable GST-tag was expressed in E. coli OverExpress C41 in LB medium for 16 h at 18 °C after induction with 0.1 mM IPTG. Cells were harvested at 3500 × g for 15 minutes and lysed by sonication in buffer containing 20 mM HEPES pH 7.5, 300 mM NaCl, 10 %v/v glycerol, 5 mM DTT, 0.1 %v/v Triton X-100 and EDTA-free protease inhibitor cocktail (Sigma-Aldrich). The cleared lysate was purified by affinity chromatography on a GSTrap HF column (Cytiva) using an ÄKTA Start (Cytiva) in buffer containing 20 mM HEPES pH 7.5, 300 mM NaCl, 10 %v/v glycerol, 5 mM DTT. OSBP(377 -807) was eluted by using elution buffer containing 20 mM HEPES pH 7.5, 300 mM NaCl, 10 %v/v glycerol, 5 mM DTT and 10 mM reduced glutathione. Proteins were further purified by SEC on a HiLoad 16/600 Superdex 75 pg (Cytiva) using an ÄKTA Explorer (Cytiva) in buffer containing 20 mM HEPES pH 7.5, 150 mM NaCl, 10 %v/v glycerol and 2 mM DTT.
(§8) The ORP domains of human ORP1(534-950) in pET24b(+) and ORP2(49-480) in the pET24b(+) vector including an N-terminal His6-Tag were expressed in E. coli BL21(DE3) in TB medium for approximately 16 h at 18 °C after induction with 0.1 mM IPTG. Cells were collected at 3500 × g for 15 minutes and lysed by sonification in buffer containing 10 mM Tris-HCl pH 8, 300 mM NaCl, 5 % glycerol, 2 mM DTT, 0.1 % Triton X-100 and EDTA-free protease inhibitor cocktail (Sigma-Aldrich). The cleared […]

ORP2 = biological target: T2, ORP2 (Homo sapiens, UniProt Q9H1P3); assay: Fluorescence polarisation (FP) competition with NBD-cholesterol, ORP2; assay type: binding; settings: for ORP2 (FP) inhibition / inhibition at 10 µM: single dose, Dose = 10 µM; for IC50: mean of three experiments run in technical duplicates
T2 construct: ORP2(49-480); host or cells: E. coli BL21(DE3)
T2 sequence (Q9H1P3 49-480): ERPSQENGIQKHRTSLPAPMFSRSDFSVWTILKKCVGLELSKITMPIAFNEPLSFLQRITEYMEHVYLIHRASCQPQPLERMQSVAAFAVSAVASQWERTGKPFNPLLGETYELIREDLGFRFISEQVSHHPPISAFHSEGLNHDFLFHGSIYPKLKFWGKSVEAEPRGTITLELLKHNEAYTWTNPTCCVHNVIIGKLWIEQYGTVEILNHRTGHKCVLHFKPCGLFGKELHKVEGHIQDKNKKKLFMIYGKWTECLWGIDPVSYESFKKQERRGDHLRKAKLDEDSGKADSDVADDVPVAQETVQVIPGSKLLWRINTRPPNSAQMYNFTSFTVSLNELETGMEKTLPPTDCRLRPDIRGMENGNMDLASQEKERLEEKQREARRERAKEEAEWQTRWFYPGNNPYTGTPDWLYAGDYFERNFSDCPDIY
Text: as §1, §2, §3, §4, §5, §6, §7, §8

Row | Structure (SMILES) | STARD4 (DSF) ΔTm (STARD4) [°C] | ORP2 (FP) inhibition (ORP2) [%] | Kd (STARD4) [µM] | IC50 (ORP2) [µM] | ΔTm at 10 µM (STARD4) [°C] | inhibition at 10 µM (ORP2) [%] | STARD4 (DSF) ΔTmmax (STARD4) [°C]
1 | Cc1nc2c(s1)CC[C@@H]1C[C@H](O)CC[C@]21C [Compound 8b] | 0.0902 | 13 |  |  |  |  | 
2 | CC(C)Oc1ccc(C(=O)Nc2nc3c(s2)CN(C(=O)OC(C)(C)C)CC3)cc1 [Autogramin-2, reference compound] | 0.2 | 18 | > 30 | 6.83 |  |  | 
3 | CCOC(=O)c1ccc2[nH]c3c(c2c1)CC[C@@H]1C[C@H](O)CC[C@]31C [Compound 10k] | -0.04 | 11 |  |  |  |  | 
4 | C[C@]12CC[C@@H](O)C[C@H]1CCC(=O)c1cc(C(F)(F)F)ccc1NC2=O [Compound 11e] |  |  |  |  | -0.0316 | 5 | 
5 | CC(C)(C)OC(=O)N1CCN(c2ccc3c(c2)C24CCC5CC(CCC52C)OC4=N3)CC1 (stereo not drawn) [Compound 19e] |  |  | 2.86 |  | 6.6 | 34 | 8.9
6 | C[C@]12CC[C@@H](O)C[C@H]1CCc1c2[nH]c2ccc(Br)cc12 [Compound 10b] | 0.2 | 21 |  |  |  |  | 
7 | CC12CCC3CC1CCC21C(=Nc2ccc(Br)cc21)O3 (single isomer, unassigned; (+)) [(+)-15b] |  |  | 7.89 | > 80 | 0.0899 | 35 | 1.4
8 | CC12CCC3CC1CCC21C(=Nc2ccc(N4CCNCC4)cc21)O3 (stereo not drawn) [Compound 22] |  |  |  |  | 0.0199 | 14 | 
9 | C[C@@]12CC[C@H]3C[C@@H]1CC[C@]21C(=Nc2ccc(Br)cc21)O3 [(−)-15b] |  |  | 6.04 | 5.85 | 0.324 | 60 | 3.6
10 | C[C@]12CC[C@@H](O)C[C@H]1CCc1c2[nH]c2ncccc12 [Compound 3] |  |  |  |  | -0.021 | 2 | 
11 | Cc1c2c(nc3cc(Br)ccc13)[C@@]1(C)CC[C@@H](O)C[C@H]1CC2 [Compound 2c] | 0.0489 | 53 |  |  |  |  | 
12 | CC12CCC(O)CC1CCc1c2[nH]c2ccc(C(F)(F)F)cc12 (stereo not drawn) [Compound 10g] |  |  |  |  | 0.00665 | 57.7 | 
13 | C[C@]12CC[C@@H]3C[C@H]1CC[C@@]21C(=Nc2ccccc21)O3 [Compound 15a] |  |  |  |  | 0.9 | 25 | 
14 | CC12CCC3CC1CCC21C(=Nc2ccc(NCc4ccccc4)cc21)O3 (stereo not drawn) [Compound 19b] |  |  | 3.48 |  | 3.7 | 41 | 7.3
15 | COc1ccc2c(c1)[C@]1(O)CC[C@@H]3C[C@H](O)CC[C@]3(C)C1=N2 [Compound 14b] |  |  |  |  | -0.1 | 25 | 
16 | C[C@]12CC[C@@H](O)C[C@H]1CCc1c2[nH]c2c(F)cc(Cl)cc12 [Compound 10i] |  |  |  |  | 0.441 | 20 | 

Row | Structure (SMILES) | STARD4 (DSF) ΔTm (STARD4) [°C] | ORP2 (FP) inhibition (ORP2) [%] | Kd (STARD4) [µM] | IC50 (ORP2) [µM] | ΔTm at 10 µM (STARD4) [°C] | inhibition at 10 µM (ORP2) [%] | STARD4 (DSF) ΔTmmax (STARD4) [°C]
17 | C[C@]12CC[C@@H](O)C[C@H]1CCc1sc(-c3cccnc3)nc12 [Compound 8c] | 0.173 | 17 |  |  |  |  | 
18 | COc1ccc2[nH]c3c(c2c1)CC[C@@H]1C[C@H](O)CC[C@]31C [Compound 10f] |  |  |  |  | 0.0284 | 36.5 | 
19 | Cc1c2c(nc3ccccc13)[C@@]1(C)CC[C@@H](O)C[C@H]1CC2 [Compound 2a] |  |  |  |  | -0.141 | 43.5 | 
20 | C[C@]12CC[C@@H]3C[C@H]1CC[C@@]21C(=Nc2ccc(N4CCN(Cc5ccncc5)CC4)cc21)O3 [Compound 24] |  |  | 6.4 |  | 3 | 27 | 4.2
21 | C[C@]12CC[C@@H](O)C[C@H]1CCc1c2nc2ccccc2c1-c1ccccc1 [Compound 2b] | -0.0888 | 14 |  |  |  |  | 
22 | COc1ccc(-c2nc3c(s2)CC[C@@H]2C[C@H](O)CC[C@]32C)cc1 [Compound 8d] |  |  |  |  | 0.3 | 38 | 
23 | COc1ccc(-c2ccc3c(c2)C24CCC5CC(CCC52C)OC4=N3)cc1 (stereo not drawn) [Compound 21b] |  |  |  | > 80 | 0.548 | 45 | 1.2
24 | Cc1cc(C)c2c(c1)N=C1[C@@]2(O)CC[C@@H]2C[C@H](O)CC[C@]12C [Compound 14c] |  |  |  |  | -0.0123 | 11 | 
25 | C[C@]12CC[C@@H]3C[C@H]1CC[C@@]21C(=Nc2ccc(C(F)(F)F)cc21)O3 [Compound 15g] |  |  |  | 8.41 | 1 | 60 | 
26 | C[C@]12CC[C@@H](O)C[C@H]1CCc1[nH]c(-c3ccccc3)nc12 [Compound 9] |  |  |  |  | -0.0502 | 3.5 | 
27 | C[C@]12CC[C@@H](O)C[C@H]1CCc1sc(N)nc12 [Compound 8a] |  |  |  |  | -0.00456 | 11 | 
28 | C[C@]12CC[C@@H](O)C[C@H]1CCC[C@]21NC(=O)c2ccc(F)cc2N1 [Compound 5b] | 0.027 | 2 |  |  | -0.0901 | 7 | 
29 | COc1ccc2c(c1)[C@@]13CC[C@@H]4C[C@@H](CC[C@@]41C)OC3=N2 [Compound 15f] |  |  |  |  | 2.1 | 73 | 
30 | Cc1cc(C)c2c3c([nH]c2c1)[C@@]1(C)CC[C@@H](O)C[C@H]1CC3 [Compound 10j] |  |  |  |  | -0.144 | 15 | 
31 | Cc1cc(C)c2c(c1)NC(=O)[C@@]1(C)CC[C@@H](O)C[C@H]1CCC2=O [Compound 11g] |  |  |  |  | 0.464 | -1 | 
